Measurements reported in PubChem BioAssay (NCI).
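Cells were grown in 96-well plates and exposed to each compound for 48 hours at five concentrations; endpoints were interpolated linearly between bracketing concentrations, or set to the highest concentration if not reached. Here, GI50 denotes the concentration required for 50% inhibition of growth. Definition used: TGI = concentration required for complete inhibition of growth.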

Experiments:
Assay in all cases: inhibition of tumour cell growth, NCI panel, 48 h
A498 renal = test system: A498 renal
CCRF-CEM leukemia = test system: CCRF-CEM leukemia
A549 NSCLC = test system: A549 NSCLC
MOLT-4 leukemia = test system: MOLT-4 leukemia
COLO 205 colon = test system: COLO 205 colon
NCI-H522 lung = test system: NCI-H522 lung
RPMI-8226 leukemia = test system: RPMI-8226 leukemia
HS 578T breast = test system: HS 578T breast
SNB-75 CNS = test system: SNB-75 CNS
UACC-62 melanoma = test system: UACC-62 melanoma
CAKI-1 renal = test system: CAKI-1 renal
NCI-H226 lung = test system: NCI-H226 lung
PC-3 prostate = test system: PC-3 prostate
OVCAR-3 ovarian = test system: OVCAR-3 ovarian
HL-60(TB) leukemia = test system: HL-60(TB) leukemia
ACHN renal = test system: ACHN renal
SK-OV-3 ovarian = test system: SK-OV-3 ovarian
MCF7 breast = test system: MCF7 breast
SF-295 CNS = test system: SF-295 CNS
KM12 colon = test system: KM12 colon
LOX IMVI melanoma = test system: LOX IMVI melanoma
NCI-H23 lung = test system: NCI-H23 lung
BT-549 breast = test system: BT-549 breast
IGROV1 ovarian = test system: IGROV1 ovarian
OVCAR-5 ovarian = test system: OVCAR-5 ovarian
HT29 colon = test system: HT29 colon
SK-MEL-5 melanoma = test system: SK-MEL-5 melanoma
HCC-2998 colon = test system: HCC-2998 colon
MDA-MB-435 = test system: MDA-MB-435
HCT-116 colon = test system: HCT-116 colon
T-47D breast = test system: T-47D breast
786-0 renal = test system: 786-0 renal
M14 melanoma = test system: M14 melanoma
TK-10 renal = test system: TK-10 renal
EKVX NSCLC = test system: EKVX NSCLC
OVCAR-4 ovarian = test system: OVCAR-4 ovarian
HOP-92 NSCLC = test system: HOP-92 NSCLC
SW-620 colon = test system: SW-620 colon
RXF 393 renal = test system: RXF 393 renal
U251 CNS = test system: U251 CNS
UACC-257 melanoma = test system: UACC-257 melanoma
SN12C renal = test system: SN12C renal
SNB-19 CNS = test system: SNB-19 CNS
K-562 leukemia = test system: K-562 leukemia
UO-31 renal = test system: UO-31 renal
HCT-15 colon = test system: HCT-15 colon
MDA-MB-231 breast = test system: MDA-MB-231 breast
NCI-H460 lung = test system: NCI-H460 lung
SF-268 CNS = test system: SF-268 CNS
SK-MEL-2 melanoma = test system: SK-MEL-2 melanoma
DU-145 prostate = test system: DU-145 prostate
NCI/ADR-RES ovarian = test system: NCI/ADR-RES ovarian
SK-MEL-28 melanoma = test system: SK-MEL-28 melanoma
MALME-3M melanoma = test system: MALME-3M melanoma
OVCAR-8 ovarian = test system: OVCAR-8 ovarian
SF-539 CNS = test system: SF-539 CNS
HOP-62 NSCLC = test system: HOP-62 NSCLC

For `CC(=O)/C(=C\c1c(-c2ccccc2)[nH]c2ccccc12)S(C)(=O)=O`, the GI50 (A498 renal) was 3.88 µM, the TGI (A498 renal) was over 54.8 µM and the GI50 (CCRF-CEM leukemia) was 4.74 µM. For the same compound, the TGI (CCRF-CEM leukemia) was over 100 µM, the GI50 (A549 NSCLC) was 7.14 µM and the TGI (A549 NSCLC) was over 100 µM. For the same compound, the GI50 (MOLT-4 leukemia) was 4.24 µM, the TGI (MOLT-4 leukemia) was over 100 µM and the GI50 (COLO 205 colon) was 2700 nM. The TGI (COLO 205 colon) was 13.5 µM, the GI50 (NCI-H522 lung) was 3.27 µM and the TGI (NCI-H522 lung) was over 25.7 µM. The GI50 (RPMI-8226 leukemia) was 2950 nM, the TGI (RPMI-8226 leukemia) was 21.9 µM and the GI50 (HS 578T breast) was 1550 nM. It also gave a TGI (HS 578T breast) of 4.88 µM, a GI50 (SNB-75 CNS) of 1450 nM and a TGI (SNB-75 CNS) of 5.2 µM. It also gave a GI50 (UACC-62 melanoma) of 3.17 µM, a TGI (UACC-62 melanoma) of over 100 µM and a GI50 (CAKI-1 renal) of 5.62 µM. The TGI (CAKI-1 renal) was over 100 µM, the GI50 (NCI-H226 lung) was 13 µM and the TGI (NCI-H226 lung) was over 100 µM. The GI50 (PC-3 prostate) was 4.46 µM, the TGI (PC-3 prostate) was over 100 µM and the GI50 (OVCAR-3 ovarian) was 2330 nM. It also gave a TGI (OVCAR-3 ovarian) of 5.35 µM, a GI50 (HL-60(TB) leukemia) of 3.51 µM and a TGI (HL-60(TB) leukemia) of 20.9 µM. For the same compound, the GI50 (ACHN renal) was 5.64 µM, the TGI (ACHN renal) was over 100 µM and the GI50 (SK-OV-3 ovarian) was 3.96 µM. The TGI (SK-OV-3 ovarian) was over 32.5 µM, the GI50 (MCF7 breast) was 2660 nM and the TGI (MCF7 breast) was over 100 µM. The GI50 (SF-295 CNS) was 3.85 µM, the TGI (SF-295 CNS) was over 61.4 µM and the GI50 (KM12 colon) was 2420 nM. It also gave a TGI (KM12 colon) of 19.2 µM, a GI50 (LOX IMVI melanoma) of 3.36 µM and a TGI (LOX IMVI melanoma) of over 66.3 µM. For the same compound, the GI50 (NCI-H23 lung) was 4 µM, the TGI (NCI-H23 lung) was over 100 µM and the GI50 (BT-549 breast) was 2770 nM. It also gave a TGI (BT-549 breast) of over 100 µM, a GI50 (IGROV1 ovarian) of 6.88 µM and a TGI (IGROV1 ovarian) of over 54.9 µM. It also gave a GI50 (OVCAR-5 ovarian) of 13.9 µM, a TGI (OVCAR-5 ovarian) of over 100 µM and a GI50 (HT29 colon) of 1600 nM. The TGI (HT29 colon) was over 40.1 µM, the GI50 (SK-MEL-5 melanoma) was 1870 nM and the TGI (SK-MEL-5 melanoma) was over 43 µM. The GI50 (HCC-2998 colon) was 6.61 µM, the TGI (HCC-2998 colon) was 33.9 µM and the GI50 (MDA-MB-435) was 313 nM. It also gave a TGI (MDA-MB-435) of 1970 nM, a GI50 (HCT-116 colon) of 2860 nM and a TGI (HCT-116 colon) of over 100 µM. It also gave a GI50 (T-47D breast) of 2580 nM, a TGI (T-47D breast) of 26 µM and a GI50 (786-0 renal) of 3.44 µM. It also gave a TGI (786-0 renal) of over 35.8 µM, a GI50 (M14 melanoma) of 1640 nM and a TGI (M14 melanoma) of 5.58 µM. It also gave a GI50 (TK-10 renal) of 8.21 µM, a TGI (TK-10 renal) of over 100 µM and a GI50 (EKVX NSCLC) of 6.34 µM. For the same compound, the TGI (EKVX NSCLC) was over 100 µM, the GI50 (OVCAR-4 ovarian) was 3.71 µM and the TGI (OVCAR-4 ovarian) was over 100 µM. For the same compound, the GI50 (HOP-92 NSCLC) was 3.11 µM, the TGI (HOP-92 NSCLC) was over 75 µM and the GI50 (SW-620 colon) was 2080 nM. It also gave a TGI (SW-620 colon) of over 100 µM, a GI50 (RXF 393 renal) of 2560 nM and a TGI (RXF 393 renal) of 8.54 µM. The GI50 (U251 CNS) was 2790 nM, the TGI (U251 CNS) was over 63 µM and the GI50 (UACC-257 melanoma) was 24.1 µM. The TGI (UACC-257 melanoma) was over 100 µM, the GI50 (SN12C renal) was 6.06 µM and the TGI (SN12C renal) was over 100 µM. It also gave a GI50 (SNB-19 CNS) of 3.3 µM, a TGI (SNB-19 CNS) of over 58.7 µM and a GI50 (K-562 leukemia) of 671 nM. It also gave a TGI (K-562 leukemia) of over 100 µM, a GI50 (UO-31 renal) of 5.3 µM and a TGI (UO-31 renal) of over 100 µM. For the same compound, the GI50 (HCT-15 colon) was 1930 nM, the TGI (HCT-15 colon) was over 100 µM and the GI50 (MDA-MB-231 breast) was 4.82 µM. For the same compound, the TGI (MDA-MB-231 breast) was over 73.9 µM, the GI50 (NCI-H460 lung) was 2780 nM and the TGI (NCI-H460 lung) was 10.7 µM. For the same compound, the GI50 (SF-268 CNS) was 4.14 µM, the TGI (SF-268 CNS) was over 93.9 µM and the GI50 (SK-MEL-2 melanoma) was 5.19 µM. It also gave a TGI (SK-MEL-2 melanoma) of over 24.2 µM, a GI50 (DU-145 prostate) of 3.47 µM and a TGI (DU-145 prostate) of 15.5 µM. For the same compound, the GI50 (NCI/ADR-RES ovarian) was 1800 nM, the TGI (NCI/ADR-RES ovarian) was 8.97 µM and the GI50 (SK-MEL-28 melanoma) was 3.34 µM. It also gave a TGI (SK-MEL-28 melanoma) of over 100 µM, a GI50 (MALME-3M melanoma) of 4.72 µM and a TGI (MALME-3M melanoma) of over 100 µM. For the same compound, the GI50 (OVCAR-8 ovarian) was 5.09 µM, the TGI (OVCAR-8 ovarian) was over 100 µM and the GI50 (SF-539 CNS) was 1890 nM. It also gave a TGI (SF-539 CNS) of 4.66 µM, a GI50 (HOP-62 NSCLC) of 7.95 µM and a TGI (HOP-62 NSCLC) of over 43.5 µM.
